The target in one test is nicotinic α4β2 receptor (Homo sapiens, UniProt P43681). The conditions noted are these: ref Paradiso et al., 2001; cited from earlier work.
Test [1] concerns the target nicotinic α4β2 receptor, α4 & β2 1:8 (Homo sapiens, UniProt P17787+P43681). In words: Agonist activation, two-electrode voltage clamp of Xenopus oocytes. The note with it: response to 1 μM 5I A85380 normalized to the response to 1 mM ACh. The test is classed as cell-based. In general terms: Two-electrode voltage clamp is typically applied to oocytes expressing channels or transporters.

A further test concerns the target β/α & α4 (Homo sapiens, UniProt P17787+P43681). Described as above. The test is classed as cell-based. The note with it: response to 1 μM 5I A85380 normalized to the response to 1 mM ACh.
In another test the target is β/α & β2 (Homo sapiens, UniProt P17787+P43681). The test is described as above. The test is classed as cell-based.
For test [2], the target named is α/β concatemer expressed alone (Homo sapiens, UniProt P17787+P43681). Described as above. The test is classed as cell-based. The note with it: response to 1 μM 5I A85380 normalized to the response to 1 mM ACh.
In test [3] the target is nicotinic α4β2 receptor, α4 & β2 8:1 (Homo sapiens, UniProt P17787+P43681). The test is described as above. The test is classed as cell-based. The note with it: response to 1 μM 5I A85380 normalized to the response to 1 mM ACh.
The target of another test is α/β & β2 (Homo sapiens, UniProt P17787+P43681). The description is as above. The test is classed as cell-based.
The test system of a further test is (α4)2(β3)3. The conditions noted are these: (α4)2(β3)3 receptor; ref Zwart et al., 2006; cited from earlier work.
The next test deals with β/α&β2F119Q (Homo sapiens, UniProt P17787+P43681, F144Q). As to the kind of experiment: Agonist activation, two-electrode voltage clamp of Xenopus oocytes. The test is classed as cell-based.
The target of a further test is α/β&β2F119Q (Homo sapiens, UniProt P17787+P43681, F144Q). The test is described as above. The test is classed as cell-based.
Test [4] has as its target β/α concatemer expressed alone (Homo sapiens, UniProt P17787+P43681). Described as above. The conditions noted are these: response to 1 μM 5I A85380 normalized to the response to 1 mM ACh. The test is classed as cell-based.
A further test addresses α/β & α4 (Homo sapiens, UniProt P17787+P43681). Described as above. The test is classed as cell-based. The conditions noted are these: response to 1 μM 5I A85380 normalized to the response to 1 mM ACh.
The subject of a further test is α/β&α-M3-β. The test is classed as cell-based, human. The note with it: α-M3-β chimera with the α/β concatemer; 10 μM; Figure 6.
The target in the next test is β/αWLAAC&β2 (Homo sapiens, UniProt P17787+P43681). The test is classed as cell-based. The note with it: β/αWLAAC concatemer with free β2; 10 μM; Figure 6.
The target in another test is α/β&β-M3-α (Homo sapiens, UniProt P17787+P43681, A332P/K336R/P333T/T327R/V337R). The test is classed as cell-based. The conditions noted are these: β-M3-α chimera (α4 sequence transferred to β2); 10 μM; Figure 6.
In test [5] the test system is nicotinic α4β2 receptor, pooled combinations of constructs. In words: Steroid potentiation, values pooled over combinations of constructs. The test is classed as cell-based, human. The conditions noted are these: for mean potentiation, single copy of WLAGMI: 10 μM 17β-estradiol.
For a further test, the target named is αWLAAC with α/β (Homo sapiens, UniProt P43681). The test is classed as cell-based. The conditions noted are these: 10 μM, Figure 6.

Turning to `CC12CCC3c4ccc(O)cc4CCC3C1CCC2O` (single isomer, unassigned) [enantiomer of 17β-estradiol], the “potentiation of the α4β2 receptor (in words)” value on nicotinic α4β2 receptor is recorded as “does not potentiate”.
As for `Ic1cncc(OC[C@@H]2CCN2)c1` [5I A85380, 5-iodo-3-(2(S)-azetidinylmethoxy) pyridine], the “5I A85380 response” value in test [1] came out at 1.44; at β/α & α4, 0.17; on β/α & β2 (β/α & β2, response to 1 μM 5I A85380 normalized to the response to 1 mM ACh), 1.59; in test [2] it was 0.16; in test [3] it was 0.19; at α/β & β2 (α/β & β2, response to 1 μM 5I A85380 normalized to the response to 1 mM ACh), 1.84. Besides, the “5I A85380 response” value was determined as 0.44 in test [4] and 0.14 on α/β & α4. Besides, the EC50 is 29 ± 12 nM on β/α & β2, 8 ± 1 nM on α/β & β2, 16 ± 1 nM at β/α&β2F119Q and 127 ± 14 nM on α/β&β2F119Q. For the same molecule, the “5I A85380 maximal response” value was 1.44 ± 0.10 fold on β/α & β2 (β/α concatemer with β2, normalized to the response to 1 mM ACh); 1.44 ± 0.07 fold at α/β & β2 (α/β concatemer with wild-type β2, normalized to the response to 1 mM ACh); 1.29 ± 0.04 fold at β/α&β2F119Q (β/α concatemer with β2F119Q, normalized to the response to 1 mM ACh); 1.13 ± 0.11 fold on α/β&β2F119Q (α/β concatemer with β2F119Q, normalized to the response to 1 mM ACh). For the same molecule, the “maximal response to 5I A85380 compared with ACh” value in the test with (α4)2(β3)3 was “greater than the maximal response to ACh”.
Turning to `C[C@]12CC[C@@H]3c4ccc(O)cc4CC[C@H]3[C@@H]1CC[C@@H]2O` [17β-estradiol], the “potentiation by 17β-estradiol (in words)” value in the test with α/β&α-M3-β is on record as “removes potentiation”; on β/αWLAAC&β2, “but not when it is expressed with free β2”; on α/β&β-M3-α, “confers potentiation”; at αWLAAC with α/β, “removes potentiation”. The “average potentiation by 10 μM 17β-estradiol” value worked out at 0.97 ± 0.02 in [5] (0 WLAGMI domains, 10 combinations tested); 2.2 ± 0.2 in [5] (1 WLAGMI domain, 10 combinations); 2.4 ± 0.4 in test [5] (2 WLAGMI domains, 5 combinations); 3.3 ± 0.2 in test [5] (3 WLAGMI domains, 4 combinations); 3.7 ± 0.3 in test [5] (5 WLAGMI domains, 3 combinations). The “mean potentiation by 17β-estradiol” value in test [5] (5 cases with no untethered AGMI and 2 or 3 critical tryptophans) was 0.94 ± 0.04. Besides, the “mean potentiation, single copy of WLAGMI” value in [5] (WLAGMI on α4 N-terminal constructs, N=2 combinations) is on record as 1.6 ± 0.1 fold; in [5] (WLAGMI on β2 N-terminal constructs, N=8 combinations) it was 2.3 ± 0.3 fold; in test [5] (domain on the structural subunit, 4 combinations), 2.4 ± 0.5 fold.

What is called EC50 is the concentration giving half of the maximal effect. A higher EC50 goes with a need for much substance.
